For 31 compounds, IC50 and Ki results are on record in patent publication US9079866B2, “Flap modulators” (JANSSEN PHARMACEUTICA NV, priority 2013, dated 2015).

The structures appear in SMILES notation. Like-named read-outs stand apart in the source and are kept apart here.

Test [1] relates to leukotriene pathway in human whole blood (LTB4 levels). Kind of test: Human whole blood assay (A23187-stimulated LTB4). In kind it is cell-based. The conditions noted are these: human whole blood diluted 1:1 in RPMI, A23187-stimulated LTB4, read-out: LTB4 IC50 1:1. The procedure, abridged: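 Blood (heparin) diluted 1:1 RPMI; compound pre-incubation 15 min, 37° Celsius; A23187 7 μg/mL, 30 min, 37° Celsius; plasma LTB4 by commercial kit. IC50 via 4-parameter equation.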

The next test concerns the target human FLAP (Homo sapiens (Human), UniProt P20292). Kind of test: FLAP binding assay (HTRF format). The conditions noted are these: human FLAP wild type, HTRF format; average of two plates, duplicates. The procedure, abridged: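 Reported data take the mean of two different plates carrying duplicate samples and use the HTRF ratio as the measured signal.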
For orientation: Time-resolved FRET reads energy transfer from a long-lived donor to a nearby acceptor.

human FLAP, sequence (P20292 whole entry): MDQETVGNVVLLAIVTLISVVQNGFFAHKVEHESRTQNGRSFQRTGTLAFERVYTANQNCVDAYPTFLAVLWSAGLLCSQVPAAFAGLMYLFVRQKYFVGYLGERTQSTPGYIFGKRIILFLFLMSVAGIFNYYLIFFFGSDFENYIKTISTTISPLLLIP

By IC50 is commonly meant the midpoint of a concentration-inhibition curve. The Ki is a measure of affinity in units of concentration, obtained from inhibition or displacement. Read a low Ki as tighter binding. In the case of `Nc1cnc(-c2ccc(-c3ccccc3S(=O)(=O)N[C@@H]3CCCC[C@H]3O)cc2F)cn1` [Example 85, 4′-(5-Aminopyrazin-2-yl)-3′-fluoro-N-[(1R,2R)-2-hydroxycyclohexyl]biphenyl-2-sulfonamide], the concentration for half-maximal inhibition (IC50) in test [1] (Homo sapiens) is 0.02 µM. Further, on human FLAP, the Ki was 0.002 µM.

On to `CC[C@H](CO)NS(=O)(=O)c1ccccc1-c1ccc(-c2cnc(N)cn2)c(F)c1` [Example 86, 4′-(5-Aminopyrazin-2-yl)-3′-fluoro-N-[(1R)-1-(hydroxymethyl)propyl]biphenyl-2-sulfonamide], for which the IC50 in test [1] (Homo sapiens) came to 0.027 µM. Moreover, the Ki on human FLAP was 0.003 µM.

Consider `Nc1cnc(-c2ccc(-c3ccccc3S(=O)(=O)N[C@@H]3CCCC[C@@H]3O)cc2F)cn1` [Example 87, 4′-(5-Aminopyrazin-2-yl)-3′-fluoro-N-[(1R,2S)-2-hydroxycyclohexyl]biphenyl-2-sulfonamide], for which the IC50 in test [1] (Homo sapiens) came to 0.075 µM. This compound also gave an inhibition constant (Ki) at human FLAP of 0.003 µM.

For the compound `Nc1cnc(-c2ccc(-c3ccccc3S(=O)(=O)NCCO)cc2F)cn1` [Example 88, 4′-(5-Aminopyrazin-2-yl)-3′-fluoro-N-(2-hydroxyethyl)biphenyl-2-sulfonamide], in test [1] (Homo sapiens), the half-maximal inhibitory concentration (IC50) came to 0.036 µM. This compound also displayed a Ki at human FLAP of 0.007 µM.

In the case of `Nc1cnc(-c2ccc(-c3ccccc3S(=O)(=O)NC3CC3)cc2F)cn1` [Example 89, 4′-(5-Aminopyrazin-2-yl)-N-cyclopropyl-3′-fluorobiphenyl-2-sulfonamide], the IC50 in test [1] (Homo sapiens) was determined as 0.043 µM. This compound also showed an inhibition constant (Ki) at human FLAP of 0.006 µM.

For `Nc1cnc(-c2ccc(-c3ccccc3S(=O)(=O)NCC3CC3)cc2F)cn1` [Example 90, 4′-(5-Aminopyrazin-2-yl)-N-(cyclopropylmethyl)-3′-fluorobiphenyl-2-sulfonamide], the IC50 in test [1] (Homo sapiens) came out at 0.012 µM. This compound also displayed an inhibition constant Ki at human FLAP of 0.001 µM.

For the compound `Nc1cnc(-c2ccc(-c3ccccc3S(=O)(=O)N3CCC[C@@H]3CO)cc2F)cn1` [Example 91, (R)-(1-((4′-(5-Aminopyrazin-2-yl)-3′-fluoro-[1,1′-biphenyl]-2-yl)sulfonyl)pyrrolidin-2-yl)methanol], in test [1] (Homo sapiens), the half-maximal inhibitory concentration (IC50) was determined as 0.028 µM. The compound also displayed a Ki on human FLAP of 0.005 µM.

For `Nc1cnc(-c2ccc(-c3ccccc3S(=O)(=O)N3CCC[C@H]3CO)cc2F)cn1` [Example 95, (S)-(1-((4′-(5-Aminopyrazin-2-yl)-3′-fluoro-[1,1′-biphenyl]-2-yl)sulfonyl)pyrrolidin-2-yl)methanol], the concentration for half-maximal inhibition (IC50) in test [1] (Homo sapiens) is 0.053 µM. The same compound had a Ki at human FLAP of 0.01 µM.

In the case of `C[C@@H](O)CNS(=O)(=O)c1ccccc1-c1ccc(-c2cnc(N)cn2)c(F)c1` [Example 97, (R)-4′-(5-aminopyrazin-2-yl)-3′-fluoro-N-(2-hydroxypropyl)-[1,1′-biphenyl]-2-sulfonamide], the IC50 in test [1] (Homo sapiens) was 0.042 µM. In addition, the inhibitory constant (Ki) at human FLAP stood at 0.008 µM.

For `C[C@H](O)CNS(=O)(=O)c1ccccc1-c1ccc(-c2cnc(N)cn2)c(F)c1` [Example 98, (S)-4′-(5-aminopyrazin-2-yl)-3′-fluoro-N-(2-hydroxypropyl)-[1,1′-biphenyl]-2-sulfonamide], the IC50 in test [1] (Homo sapiens) was 0.039 µM. Further, affinity on human FLAP was put at a Ki of 0.008 µM.

`Nc1cnc(-c2ccc(-c3ccccc3S(=O)(=O)NCC3(O)CCCCC3)cc2F)cn1` [Example 99, 4′-(5-Aminopyrazin-2-yl)-3′-fluoro-N-[(1-hydroxycyclohexyl)methyl]biphenyl-2-sulfonamide]: the concentration for half-maximal inhibition (IC50) in test [1] (Homo sapiens) was found to be 0.03 µM. This compound registered a Ki at human FLAP of 0.002 µM.

For the compound `CC(C)(CO)NS(=O)(=O)c1ccccc1-c1ccc(-c2cnc(N)cn2)c(F)c1` [Example 100, 4′-(5-Aminopyrazin-2-yl)-3′-fluoro-N-(2-hydroxy-1,1-dimethylethyl)biphenyl-2-sulfonamide], in test [1] (Homo sapiens), the IC50 amounted to 0.024 µM. Moreover, affinity on human FLAP was put at a Ki of 0.001 µM.

On to `CC(C)(O)CNS(=O)(=O)c1ccccc1-c1ccc(-c2cnc(N)cn2)c(F)c1` [Example 101, 4′-(5-Aminopyrazin-2-yl)-3′-fluoro-N-(2-hydroxy-2-methylpropyl)biphenyl-2-sulfonamide], for which the 50% inhibitory concentration (IC50) in test [1] (Homo sapiens) came out at 0.014 µM. This compound returned a Ki on human FLAP of 0.002 µM.

Consider `Nc1cnc(-c2ccc(-c3ccccc3S(=O)(=O)NC[C@H](O)CO)cc2F)cn1` [Example 104, (S)-4′-(5-Aminopyrazin-2-yl)-N-(2,3-dihydroxypropyl)-3′-fluoro-[1,1′-biphenyl]-2-sulfonamide], for which, in test [1] (Homo sapiens), the concentration for half-maximal inhibition (IC50) was over 1 µM. The compound further gave an inhibition constant (Ki) at human FLAP of 0.012 µM.

With `Nc1cnc(-c2ccc(-c3ccccc3S(=O)(=O)NC[C@@H](O)CO)cc2F)cn1` [Example 105, (R)-4′-(5-Aminopyrazin-2-yl)-N-(2,3-dihydroxypropyl)-3′-fluoro-[1,1′-biphenyl]-2-sulfonamide], the IC50 in test [1] (Homo sapiens) is 0.481 µM. Also, on human FLAP, the inhibitory constant (Ki) is 0.025 µM.

As to `Nc1cnc(-c2ccc(-c3ccccc3S(=O)(=O)N[C@H]3CCNC3=O)cc2F)cn1` [Example 107, (S)-4′-(5-Aminopyrazin-2-yl)-3′-fluoro-N-(2-oxopyrrolidin-3-yl)-[1,1′-biphenyl]-2-sulfonamide], the half-inhibitory concentration (IC50) in test [1] (Homo sapiens) amounted to 0.132 µM. The inhibition constant Ki on human FLAP came out at 0.016 µM.

For `Nc1cnc(-c2ccc(-c3ccccc3S(=O)(=O)N[C@H]3CCCNC3=O)cc2F)cn1` [Example 108, (S)-4′-(5-Aminopyrazin-2-yl)-3′-fluoro-N-(2-oxopiperidin-3-yl)-[1,1′-biphenyl]-2-sulfonamide], the IC50 in test [1] (Homo sapiens) came to 0.049 µM. The compound further came in with a Ki at human FLAP of 0.01 µM.

With `CC(C)[C@H](CO)NS(=O)(=O)c1ccccc1-c1ccc(-c2cnc(N)cn2)c(F)c1` [Example 109, (R)-4′-(5-Aminopyrazin-2-yl)-3′-fluoro-N-[1-(hydroxymethyl)-2-methylpropyl]biphenyl-2-sulfonamide], in test [1] (Homo sapiens), the IC50 was found to be 0.018 µM. At human FLAP, this compound displayed an inhibition constant (Ki) of 0.001 µM.

Take `Nc1cnc(-c2ccc(-c3ccccc3S(=O)(=O)N[C@H]3CC[C@H](O)CC3)cc2F)cn1` [Example 110, 4′-(5-Aminopyrazin-2-yl)-3′-fluoro-N-(4-hydroxycyclohexyl)biphenyl-2-sulfonamide]: in test [1] (Homo sapiens), the IC50 was found to be 0.029 µM. Besides, the inhibitory constant (Ki) at human FLAP turned out to be 0.003 µM.

With `Nc1cnc(-c2ccc(-c3ccccc3S(=O)(=O)N3CC[C@@H](CO)C3)cc2F)cn1` [Example 111, (R)-(1-((4′-(5-Aminopyrazin-2-yl)-3′-fluoro-[1,1′-biphenyl]-2-yl)sulfonyl)pyrrolidin-3-yl)methanol], in test [1] (Homo sapiens), the IC50 worked out at 0.058 µM. Besides, the inhibition constant (Ki) on human FLAP was determined as 0.004 µM.

For the compound `Nc1cnc(-c2ccc(-c3ccccc3S(=O)(=O)N3CC[C@H](CO)C3)cc2F)cn1` [Example 112, (S)-(1-{[4′-(5-Aminopyrazin-2-yl)-3′-fluorobiphenyl-2-yl]sulfonyl}pyrrolidin-3-yl)methanol], in test [1] (Homo sapiens), the IC50 turned out to be 0.154 µM. This compound also came in with an inhibitory constant (Ki) at human FLAP of 0.007 µM.

On to `Nc1cnc(-c2ccc(-c3ccccc3S(=O)(=O)N[C@@H]3CCCNC3=O)cc2F)cn1` [Example 113, (R)-4′-(5-Aminopyrazin-2-yl)-3′-fluoro-N-(2-oxopiperidin-3-yl)biphenyl-2-sulfonamide], for which, in test [1] (Homo sapiens), the IC50 was found to be 0.145 µM. This compound also showed a Ki at human FLAP of 0.01 µM.

Turning to `CN([C@@H]1CCCNC1)S(=O)(=O)c1ccccc1-c1ccc(-c2cnc(N)cn2)c(F)c1` [Example 114, (R)-4′-(5-Aminopyrazin-2-yl)-3′-fluoro-N-methyl-N-piperidin-3-ylbiphenyl-2-sulfonamide], the IC50 in test [1] (Homo sapiens) amounted to 0.221 µM. Also, at human FLAP, the affinity corresponds to a Ki of 0.012 µM.

As for `CN([C@H]1CCCNC1)S(=O)(=O)c1ccccc1-c1ccc(-c2cnc(N)cn2)c(F)c1` [Example 115, (S)-4′-(5-Aminopyrazin-2-yl)-3′-fluoro-N-methyl-N-piperidin-3-ylbiphenyl-2-sulfonamide], in test [1] (Homo sapiens), the half-inhibitory concentration (IC50) is 0.108 µM. The compound also gave a Ki at human FLAP of 0.004 µM.

With `Nc1cnc(-c2ccc(-c3ccccc3S(=O)(=O)N[C@H](CO)Cc3ccccc3)cc2F)cn1` [Example 116, (S)-4′-(5-Aminopyrazin-2-yl)-3′-fluoro-N-(1-hydroxy-3-phenylpropan-2-yl)-[1,1′-biphenyl]-2-sulfonamide], in test [1] (Homo sapiens), the IC50 was 0.012 µM. Besides, the Ki at human FLAP stood at 0.001 µM.

As for `Nc1cnc(-c2ccc(-c3ccccc3S(=O)(=O)NC[C@H](O)c3ccccc3)cc2F)cn1` [Example 117, (R)-4′-(5-Aminopyrazin-2-yl)-3′-fluoro-N-(2-hydroxy-2-phenylethyl)-[1,1′-biphenyl]-2-sulfonamide], the IC50 in test [1] (Homo sapiens) came to 0.007 µM. Also, the Ki on human FLAP worked out at 0.001 µM.

Turning to `Nc1cnc(-c2ccc(-c3ccccc3S(=O)(=O)N3CC(O)C3)cc2F)cn1` [Example 119, 1-{[4′-(5-Aminopyrazin-2-yl)-3′-fluorobiphenyl-2-yl]sulfonyl}azetidin-3-ol], in test [1] (Homo sapiens), the half-maximal inhibitory concentration (IC50) came to 0.022 µM. In addition, at human FLAP, the affinity, expressed as Ki, was 0.003 µM.

In the case of `Nc1cnc(-c2ccc(-c3ccccc3S(=O)(=O)NC3CCNCC3)cc2F)cn1` [Example 123, 4′-(5-Aminopyrazin-2-yl)-3′-fluoro-N-piperidin-4-ylbiphenyl-2-sulfonamide], in test [1] (Homo sapiens), the concentration for half-maximal inhibition (IC50) is 1.12 µM. For the same compound, the affinity at human FLAP corresponds to a Ki of 0.083 µM.

Regarding `NCC1CN(S(=O)(=O)c2ccccc2-c2ccc(-c3cnc(N)cn3)c(F)c2)C1` [Example 124, 5-(2′-{[3-(Aminomethyl)azetidin-1-yl]sulfonyl}-3-fluorobiphenyl-4-yl)pyrazin-2-amine], in test [1] (Homo sapiens), the IC50 was 0.217 µM. The affinity on human FLAP corresponds to a Ki of 0.035 µM.

On to `Nc1cnc(-c2ccc(-c3ccccc3S(=O)(=O)NCC3CNC3)cc2F)cn1` [Example 125, 4′-(5-Aminopyrazin-2-yl)-N-(azetidin-3-ylmethyl)-3′-fluorobiphenyl-2-sulfonamide], for which the IC50 in test [1] (Homo sapiens) was over 10 µM. For the same compound, at human FLAP, the Ki was found to be 0.05 µM.

`C[C@@H](NS(=O)(=O)c1ccccc1-c1ccc(-c2cnc(N)cn2)c(F)c1)C(F)(F)F` [Example 127, (R)-4′-(5-Aminopyrazin-2-yl)-3′-fluoro-N-(2,2,2-trifluoro-1-methylethyl)biphenyl-2-sulfonamide]: the 50% inhibitory concentration (IC50) in test [1] came to 0.035 µM. Moreover, the Ki on human FLAP turned out to be 0.002 µM.
